Data set [1] can be described thus: Solubility of scalp actives. The class given is physicochemical.
For data set [2] the following is noted: cited from earlier work.

The structures appear in SMILES notation.

With `Cc1cc(CC(C)CC(C)(C)C)n(O)c(=O)c1.NCCO` (stereo not shown) [piroctone olamine], the Oil solubility entry in data set [1] is given as “oil soluble”. The Solubility in water entry in data set [2] is recorded as “very limited solubility”. Turning to `CC1CCC(C(C)C)C(O)C1` (stereo not shown) [menthol], the Oil solubility entry in data set [1] is listed as “oil soluble”. With `O=C(O)c1ccccc1O` [salicylic acid], the Water solubility entry in data set [1] (at pH of 4.8 and above) was “water soluble”.
